Data reported in doi:10.1101/2024.06.05.597555v1 (biorxiv, 2024).
Where two headings read alike, the source gives them in different places.

Tests used:
[1] = biological target: T1, NS2B(H)-NS3pro (DENV-2 NS2B-NS3 protease) (Dengue virus 2 Thailand/NGS-C/1944, UniProt P14340); assay: biochemical; details: read-out: % inhibition
T1 sequence (P14340 1394-1433 limits assumed): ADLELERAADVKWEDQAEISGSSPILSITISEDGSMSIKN
T1 sequence (P14340 1476-1660 limits assumed): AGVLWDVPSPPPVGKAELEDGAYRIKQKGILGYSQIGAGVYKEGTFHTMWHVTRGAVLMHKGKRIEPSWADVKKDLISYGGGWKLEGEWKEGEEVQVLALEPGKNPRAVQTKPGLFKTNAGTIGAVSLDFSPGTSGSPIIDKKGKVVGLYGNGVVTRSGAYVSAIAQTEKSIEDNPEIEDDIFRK

DENV-2 = assay: microbe, parasite or virus in culture; details: Dengue virus, DENV2, Vero, 48 h, read-out: % inhibition
[2] = biological target: T1, NS2B(H)-NS3pro (DENV-2 NS2B-NS3 protease); assay: biochemical; details: read-out: % inhibition; remark: listed apart in the source
[3] = biological target: T1, NS2B(H)-NS3pro (DENV-2 NS2B-NS3 protease); assay: fluorometric protease assay, AMC substrate; type: biochemical; details: read-out: % inhibition at 50 μM
[4] = biological target: T1, NS2B(H)-NS3pro (DENV-2 NS2B-NS3 protease); details: read-out: IC50 (C7.5-HEPES AMC); AMC substrate, HEPES pH 7.5, CHAPS; inhibitor
[5] = biological target: T2, DENV2proHeLa NS2B-NS3 protease (Dengue virus 2 Thailand/16681/84, UniProt P29990); assay: cell-based; design: species or system DENV2proHeLa (HeLa); details: HeLa, read-out: % inhibition
[6] = biological target: T2, DENV2proHeLa NS2B-NS3 protease; assay: cell-based; design: species or system DENV2proHeLa (HeLa)
in vitro [7] = assay: in vitro; design: species or system DENV2proHeLa (HeLa); details: human, denv2prohela cells
[8] = biological target: T1, NS2B(H)-NS3pro (DENV-2 NS2B-NS3 protease); assay: biochemical; details: read-out: % inhibition; remark: listed apart in the source
[9] = biological target: T2, DENV2proHeLa NS2B-NS3 protease; assay: cell-based; design: species or system DENV2proHeLa (HeLa); details: HeLa, read-out: % inhibition; remark: listed apart in the source
[10] = biological target: T2, DENV2proHeLa NS2B-NS3 protease; assay: cell-based; design: species or system DENV2proHeLa (HeLa); details: read-out: DENV2proHeLa EC50; inhibitor
in vitro [11] = assay: in vitro; design: species or system DENV2proHeLa (HeLa); details: human, denv2prohela cells; remark: listed apart in the source
[12] = biological target: T1, NS2B(H)-NS3pro (DENV-2 NS2B-NS3 protease); assay: fluorometric protease assay, AMC substrate; type: biochemical; details: pH 7.5, HEPES, CHAPS; substrate Bz-nKRR-AMC
[13] = biological target: T2, DENV2proHeLa NS2B-NS3 protease; assay: cell-based
[14] = biological target: T1, NS2B(H)-NS3pro (DENV-2 NS2B-NS3 protease); assay: biochemical; details: read-out: % inhibition; remark: listed apart in the source
[15] = biological target: T2, DENV2proHeLa NS2B-NS3 protease; assay: cell-based; design: species or system DENV2proHeLa (HeLa); details: HeLa, read-out: % inhibition; remark: listed apart in the source
in vitro [16] = assay: in vitro; design: species or system DENV2proHeLa (HeLa); details: human, denv2prohela cells; remark: listed apart in the source

T2 sequence (P29990 1476-2093 limits assumed): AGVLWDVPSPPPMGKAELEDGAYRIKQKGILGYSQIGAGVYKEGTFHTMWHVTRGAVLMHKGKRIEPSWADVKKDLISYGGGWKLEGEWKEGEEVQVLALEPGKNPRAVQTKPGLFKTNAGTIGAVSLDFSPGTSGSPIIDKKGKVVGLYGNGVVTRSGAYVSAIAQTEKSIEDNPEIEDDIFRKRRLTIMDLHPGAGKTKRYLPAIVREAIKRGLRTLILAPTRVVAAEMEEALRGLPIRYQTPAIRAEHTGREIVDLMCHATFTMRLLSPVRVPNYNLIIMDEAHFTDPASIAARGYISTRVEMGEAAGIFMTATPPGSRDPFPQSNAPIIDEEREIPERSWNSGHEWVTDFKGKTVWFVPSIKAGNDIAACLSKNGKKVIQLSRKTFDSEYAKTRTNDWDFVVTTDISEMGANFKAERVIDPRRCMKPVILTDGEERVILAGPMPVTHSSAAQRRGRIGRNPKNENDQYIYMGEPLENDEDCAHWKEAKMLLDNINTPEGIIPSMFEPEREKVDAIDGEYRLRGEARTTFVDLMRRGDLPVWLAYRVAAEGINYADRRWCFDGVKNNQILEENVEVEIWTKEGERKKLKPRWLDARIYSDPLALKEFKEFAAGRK
T2 sequence (P29990 1346-1475 partner limits assumed): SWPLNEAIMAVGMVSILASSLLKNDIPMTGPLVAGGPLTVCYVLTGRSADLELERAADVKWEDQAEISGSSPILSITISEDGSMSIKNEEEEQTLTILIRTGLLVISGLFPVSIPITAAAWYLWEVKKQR

Compound: CCCCCC(=O)N[C@H](C(=O)NCc1ccc(NC(=N)N)cc1)c1ccc(OCc2ccccc2)cc1 [NK-189]
- inhibition at 50 µM [1]: 97%
- inhibition at 25 µM (DENV-2): 21%
- inhibition at 50 µM [2]: 95%

Compound: CCCCCC(=O)N[C@H](C(=O)Nc1cccc(C(N)=O)c1)c1ccc(OCc2ccccc2)cc1 [compound 2]
- inhibition at 50 µM [3]: 64 ± 5.1%

Compound: CCCCC(CC)C(=O)N[C@H](C(=O)Nc1cccc(C(N)=O)c1)c1ccc(OCc2ccccc2)cc1 (stereo partly drawn) [compound 20, 20]
- IC50 [4]: 22 µM
- inhibition at 12.5 µM [5]: 63%
- EC50 ([6]; read-out: DENV2proHeLa EC50, inhibitor): 11 µM
- CC50 (in vitro [7]): > 50 µM
- inhibition at 25 µM (DENV-2): 90%

Compound: NC(=O)c1cccc(NC(=O)[C@@H](NC(=O)C2COc3ccccc3C2)c2ccc(OCc3ccccc3)cc2)c1 (stereo partly drawn) [compound 26, 26]
- inhibition at 50 µM [8]: 88%
- IC50 [4]: 16 µM
- inhibition at 12.5 µM [5]: 77%
- EC50 [6]: 6.8 µM
- CC50 (in vitro [7]): > 50 µM

Compound: COc1cc(CC(=O)N[C@H](C(=O)Nc2cccc(C(N)=O)c2)c2ccc(OCc3ccccc3)cc2)cc(OC)c1OC [compound 31]
- inhibition at 50 µM [3]: 76%
- inhibition at 12.5 µM [9]: 75%
- EC50 [10]: 12 µM
- CC50 (in vitro [11]): > 50 µM
- inhibition at 25 µM (DENV-2): 11%

Compound: NC(=O)c1cccc(NC(=O)C(Cc2ccc(OCc3ccc4ccccc4c3)cc2)NC(=O)c2ccc(Oc3ccccc3)cc2)c1 (stereo not drawn) [compound 63]
- IC50 [12]: 4.8 µM
- EC50 [13]: 5.1 µM
- inhibition at 50 µM [14]: 100%
- inhibition at 12.5 µM [15]: 82%
- CC50 (in vitro [16]): 16 µM

Compound: CC(C(=O)NC(Cc1c[nH]c2ccccc12)C(=O)Nc1cccc(C(N)=O)c1)c1ccc2c(c1)[nH]c1ccc(Cl)cc12 (stereo not drawn) [compound 67, 67]
- inhibition at 50 µM [14]: 91%
- inhibition at 12.5 µM [15]: 91%
- CC50 (in vitro [16]): 16 µM

Compound: NC(=O)c1cccc(NC(=O)C(Cc2c[nH]c3ccccc23)NC(=O)c2ccc(Oc3ccccc3)cc2)c1 (stereo not drawn) [compound 69, 69]
- inhibition at 50 µM [14]: 80%
- inhibition at 12.5 µM [15]: 65%
- CC50 (in vitro [16]): > 50 µM
